Measured values: patent US10253052B2, “HBED-bisphosphonates, radiometal conjugates and their use as theranostic agents” (Five Eleven Pharma Inc., priority 2015, dated 2019)
“And” between values parts separate entries of the source, which are not always exact repeats. Equal values may be shown once. Marks after values point to notes of the source that are not given here.

Experiments:
[1] = Micro-PET imaging in normal mice; type: in vivo, normal CD-1 male mice; conditions: 15 min scan at 60 min post-injection
Method: [^68Ga]1a, [^68Ga]BPAMD and [^18F]NaF were tested in normal CD-1 male mice. [^68Ga]1g was tested in PSMA expressing LNCaP tumor bearing nude mice. Mice received 300-500 uCi radiotracer through a tail vein injection. PET imaging was performed under isoflurane anaesthesia (2% isoflurane, 1.5 L/min oxygen). The microPET imaging was performed with a small animal PET (Mosaic by Phillips, USA). During PET measurements, the animals were placed in the prone position. At 60 min post injection of the radiotracer, data acquisition was performed for 15 min.

[2] = In vivo biodistribution in mice; design: species or system normal CD-1 male mice; conditions: for bone to blood ratio / bone to muscle ratio / Biodistribution: Blood / Biodistribution: Bone / Biodistribution: Brain / Biodistribution: Heart / Biodistribution: Kidney / Biodistribution: Liver / Biodistribution: Lung / Biodistribution: Muscle / Biodistribution: Pancreas / Biodistribution: Skin / Biodistribution: Spleen: iv
How it was run: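 Normal male CD-1 mice (25-30 g) received 20-30 μCi of ^68Ga-labelled tracer or [^18F]NaF intravenously and were sacrificed at 2, 30, 60 and 120 min. Harvested organs, with tibia and femur as bone, were weighed and gamma-counted; uptake is expressed as % ID/g wet tissue.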

[3] = In vitro binding to hydroxyapatite; conditions: 20 mg hydroxyapatite in saline, 10 min at room temperature
How it was run: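 Hydroxyapatite was pre-incubated 24 h in isotonic saline, then ^68Ga-labelled compound (1 μCi) was added and incubated 10 min at room temperature. After centrifugation and two saline washes, gamma counting of supernatants and solid gave percent ^68Ga bound to hydroxyapatite.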

[18F-].[Na+] [[^18F]NaF, reference compound]
Micro-PET localization (in words) [1]: localized in the spines of mice | bone to blood ratio ([2]; 2 min): 1.9 | bone to muscle ratio ([2]; 2 min): 7.2 | Biodistribution: Blood ([2]; 2 min post injection): 5.56 ± 0.37 % dose/g | Biodistribution: Bone ([2]; 2 min post injection): 10.8 ± 0.51 % dose/g | Biodistribution: Brain ([2]; 2 min post injection): 0.22 ± 0.07 % dose/g | Biodistribution: Heart ([2]; 2 min post injection): 2.80 ± 0.24 % dose/g | Biodistribution: Kidney ([2]; 2 min post injection): 10.4 ± 1.22 % dose/g | Biodistribution: Liver ([2]; 2 min post injection): 2.56 ± 0.24 % dose/g | Biodistribution: Lung ([2]; 2 min post injection): 3.37 ± 0.17 % dose/g | Biodistribution: Muscle ([2]; 2 min post injection): 1.50 ± 0.06 % dose/g | Biodistribution: Pancreas ([2]; 2 min post injection): 1.76 ± 0.07 % dose/g | Biodistribution: Skin ([2]; 2 min post injection): 2.35 ± 0.45 % dose/g | Biodistribution: Spleen ([2]; 2 min post injection): 2.33 ± 0.14 % dose/g | bone to blood ratio ([2]; 30 min): 38 | bone to muscle ratio ([2]; 30 min): 73 | Biodistribution: Blood ([2]; 30 min (0.5 hr) post injection): 0.64 ± 0.08 % dose/g | Biodistribution: Bone ([2]; 30 min (0.5 hr) post injection): 24.2 ± 2.71 % dose/g | Biodistribution: Brain ([2]; 30 min (0.5 hr) post injection): 0.10 ± 0.02 % dose/g | Biodistribution: Heart ([2]; 30 min (0.5 hr) post injection): 0.96 ± 0.23 % dose/g | Biodistribution: Kidney ([2]; 30 min (0.5 hr) post injection): 1.70 ± 0.62 % dose/g | Biodistribution: Liver ([2]; 30 min (0.5 hr) post injection): 0.65 ± 0.17 % dose/g | Biodistribution: Lung ([2]; 30 min (0.5 hr) post injection): 0.55 ± 0.11 % dose/g | Biodistribution: Muscle ([2]; 30 min (0.5 hr) post injection): 0.33 ± 0.11 % dose/g | Biodistribution: Pancreas ([2]; 30 min (0.5 hr) post injection): 0.42 ± 0.27 % dose/g | Biodistribution: Skin ([2]; 30 min (0.5 hr) post injection): 0.51 ± 0.11 % dose/g | Biodistribution: Spleen ([2]; 30 min (0.5 hr) post injection): 0.93 ± 0.56 % dose/g | bone to blood ratio ([2]; 60 min): 161 | bone to muscle ratio ([2]; 60 min): 291 and 281 | Biodistribution: Blood ([2]; 60 min (1 hr) post injection): 0.15 ± 0.01 % dose/g | Biodistribution: Bone ([2]; 60 min (1 hr) post injection): 24.6±3.2 % dose/g and 24.6 ± 3.18 % dose/g | Biodistribution: Brain ([2]; 60 min (1 hr) post injection): 0.06 ± 0.01 % dose/g | Biodistribution: Heart ([2]; 60 min (1 hr) post injection): 0.18 ± 0.02 % dose/g | Biodistribution: Kidney ([2]; 60 min (1 hr) post injection): 0.68 ± 0.36 % dose/g | Biodistribution: Liver ([2]; 60 min (1 hr) post injection): 0.13 ± 0.01 % dose/g | Biodistribution: Lung ([2]; 60 min (1 hr) post injection): 0.14 ± 0.01 % dose/g | Biodistribution: Muscle ([2]; 60 min (1 hr) post injection): 0.09 ± 0.02 % dose/g | Biodistribution: Pancreas ([2]; 60 min (1 hr) post injection): 0.07 ± 0.00 % dose/g | Biodistribution: Skin ([2]; 60 min (1 hr) post injection): 0.11 ± 0.02 % dose/g | Biodistribution: Spleen ([2]; 60 min (1 hr) post injection): 0.12 ± 0.02 % dose/g | bone to blood ratio ([2]; 120 min): 760 | bone to muscle ratio ([2]; 120 min): 593 | Biodistribution: Blood ([2]; 120 min post injection): 0.03 ± 0.00 % dose/g | Biodistribution: Bone ([2]; 120 min post injection): 25.2 ± 3.89 % dose/g | Biodistribution: Brain ([2]; 120 min post injection): 0.04 ± 0.00 % dose/g | Biodistribution: Heart ([2]; 120 min post injection): 0.04 ± 0.00 % dose/g | Biodistribution: Kidney ([2]; 120 min post injection): 0.57 ± 0.43 % dose/g | Biodistribution: Liver ([2]; 120 min post injection): 0.03 ± 0.01 % dose/g | Biodistribution: Lung ([2]; 120 min post injection): 0.04 ± 0.01 % dose/g | Biodistribution: Muscle ([2]; 120 min post injection): 0.04 ± 0.04 % dose/g | Biodistribution: Pancreas ([2]; 120 min post injection): 0.02 ± 0.00 % dose/g | Biodistribution: Skin ([2]; 120 min post injection): 0.03 ± 0.00 % dose/g | Biodistribution: Spleen ([2]; 120 min post injection): 0.03 ± 0.01 % dose/g | Hydroxyapatite Binding (%) [3]: 78.4 ± 3.9%

O=C([O-])CN1CCN(CC(=O)[O-])CCN(CC(=O)NCCNC(=O)CCc2ccc(O)c(CN(CCN(CC(=O)O)Cc3cc(CCC(=O)NC(P(=O)(O)O)P(=O)(O)O)ccc3O)CC(=O)O)c2)CCN(CC(=O)[O-])CC1.[177Lu+3] [[^177Lu]1h]
bone to blood ratio ([2]; 30 min): 24 | bone to muscle ratio ([2]; 30 min): 41 | Biodistribution: Blood ([2]; 30 min (0.5 hr) post injection): 0.54 ± 0.11 % dose/g | Biodistribution: Bone ([2]; 30 min (0.5 hr) post injection): 12.4 ± 1.19 % dose/g | Biodistribution: Brain ([2]; 30 min (0.5 hr) post injection): 0.03 ± 0.01 % dose/g | Biodistribution: Heart ([2]; 30 min (0.5 hr) post injection): 0.23 ± 0.05 % dose/g | Biodistribution: Kidney ([2]; 30 min (0.5 hr) post injection): 1.21 ± 0.94 % dose/g | Biodistribution: Liver ([2]; 30 min (0.5 hr) post injection): 0.20 ± 0.03 % dose/g | Biodistribution: Lung ([2]; 30 min (0.5 hr) post injection): 1.35 ± 1.52 % dose/g | Biodistribution: Muscle ([2]; 30 min (0.5 hr) post injection): 0.39 ± 0.24 % dose/g | Biodistribution: Pancreas ([2]; 30 min (0.5 hr) post injection): 0.15 ± 0.03 % dose/g | Biodistribution: Skin ([2]; 30 min (0.5 hr) post injection): 0.41 ± 0.12 % dose/g | Biodistribution: Spleen ([2]; 30 min (0.5 hr) post injection): 0.15 ± 0.04 % dose/g | bone to blood ratio ([2]; 60 min): 97 | bone to muscle ratio ([2]; 60 min): 200 | Biodistribution: Blood ([2]; 60 min (1 hr) post injection): 0.12 ± 0.02 % dose/g | Biodistribution: Bone ([2]; 60 min (1 hr) post injection): 11.4±0.3 % dose/g and 11.4 ± 0.31 % dose/g | Biodistribution: Brain ([2]; 60 min (1 hr) post injection): 0.01 ± 0.00 % dose/g | Biodistribution: Heart ([2]; 60 min (1 hr) post injection): 0.08 ± 0.02 % dose/g | Biodistribution: Kidney ([2]; 60 min (1 hr) post injection): 1.48 ± 0.60 % dose/g | Biodistribution: Liver ([2]; 60 min (1 hr) post injection): 0.13 ± 0.03 % dose/g | Biodistribution: Lung ([2]; 60 min (1 hr) post injection): 0.20 ± 0.05 % dose/g | Biodistribution: Muscle ([2]; 60 min (1 hr) post injection): 0.06 ± 0.01 % dose/g | Biodistribution: Pancreas ([2]; 60 min (1 hr) post injection): 0.07 ± 0.02 % dose/g | Biodistribution: Skin ([2]; 60 min (1 hr) post injection): 0.11 ± 0.03 % dose/g | Biodistribution: Spleen ([2]; 60 min (1 hr) post injection): 0.07 ± 0.01 % dose/g | Biodistribution: Blood ([2]; 6 hr post injection): 0.016 ± 0.007 % dose/g | Biodistribution: Bone ([2]; 6 hr post injection): 12.7 ± 0.90 % dose/g | Biodistribution: Brain ([2]; 6 hr post injection): 0.003 ± 0.003 % dose/g | Biodistribution: Heart ([2]; 6 hr post injection): 0.024 ± 0.005 % dose/g | Biodistribution: Kidney ([2]; 6 hr post injection): 0.686 ± 0.191 % dose/g | Biodistribution: Liver ([2]; 6 hr post injection): 0.088 ± 0.021 % dose/g | Biodistribution: Lung ([2]; 6 hr post injection): 0.062 ± 0.006 % dose/g | Biodistribution: Muscle ([2]; 6 hr post injection): 0.031 ± 0.011 % dose/g | Biodistribution: Pancreas ([2]; 6 hr post injection): 0.021 ± 0.001 % dose/g | Biodistribution: Skin ([2]; 6 hr post injection): 0.052 ± 0.006 % dose/g | Biodistribution: Spleen ([2]; 6 hr post injection): 0.038 ± 0.005 % dose/g | bone to blood ratio ([2]; 6 hr post-injection): 909^a | bone to muscle ratio ([2]; 6 hr post-injection): 454^a | Biodistribution: Blood ([2]; 24 hr post injection): 0.003 ± 0.001 % dose/g | Biodistribution: Bone ([2]; 24 hr post injection): 11.6 ± 1.14 % dose/g | Biodistribution: Brain ([2]; 24 hr post injection): 0.014 ± 0.016 % dose/g | Biodistribution: Heart ([2]; 24 hr post injection): 0.014 ± 0.003 % dose/g | Biodistribution: Kidney ([2]; 24 hr post injection): 0.411 ± 0.125 % dose/g | Biodistribution: Liver ([2]; 24 hr post injection): 0.068 ± 0.013 % dose/g | Biodistribution: Lung ([2]; 24 hr post injection): 0.040 ± 0.003 % dose/g | Biodistribution: Muscle ([2]; 24 hr post injection): 0.021 ± 0.005 % dose/g | Biodistribution: Pancreas ([2]; 24 hr post injection): 0.013 ± 0.005 % dose/g | Biodistribution: Skin ([2]; 24 hr post injection): 0.042 ± 0.008 % dose/g | Biodistribution: Spleen ([2]; 24 hr post injection): 0.034 ± 0.005 % dose/g | bone to blood ratio ([2]; 24 hr post-injection): 4312^b^ | bone to muscle ratio ([2]; 24 hr post-injection): 572^b | Biodistribution result in words (organ uptake, retention, excretion) ([2]; normal mice after iv injection): excellent bone uptake, retention in bone and fast kidney excretion | Hydroxyapatite Binding (%) [3]: 90.9 ± 1.1%
